US20160030498A1, “HERBAL COMPOSITIONS FOR TREATING PAIN AND SKIN DISORDERS” (RUPAK ENTERPRISES (P) LIMITED, priority 2013, published 2016)
pIC50: −log10 of the molar value.

How the values were obtained:
[1] = test system: proliferative dermatological disorders; test: Use in human subjects suffering from dermatological disorders; assay type: in vivo; details: humans
Excerpt: Another embodiment of the present invention refers to method of use of a composition comprising of Acetyl-11-keto-beta-boswellic acid (BOSWELLIC ACID) and Bakuchiol for alleviation and management of skin rashes, itching, and boils resulting from skin proliferative disorders, specifically psoriasis, atopic dermatitis. For example, the method of use disclosed herein may be administered alongside steroidal therapy during the steroid dose tapering phase, followed by standalone administration of the combination provides complete remission of skin conditions, and is maintained that upon continuance of recommended dosage. In certain embodiments the skin disorder may be resulting from irritants, allergens, trigger, or autoimmune reasons, and the combination defined herein is effective in all of the above. The present invention includes the formulation of a Bakuchiol and BOSWELLIC ACID combination in an oral dosage form or, lotion, cream, ointment which can be applied topically.

LOX = LOX inhibition assay; assay type: biochemical

| pIC50 (LOX) | Molecule | Remission of proliferative dermatological conditions [1] |
| --- | --- | --- |
|  | 3-o-Acetyl-11-keto-beta-boswellic acid | substantial remission |
| 5.51 | C=C[C@@](C)(/C=C/c1ccc(O)cc1)CCC=C(C)C [Bakuchiol] |  |
